The supplement of paper PMC13380429

Tests used:
Settings in all cases: 72 h
U2OS [1] = test: relative viability EC50 (midpoint between 100% and the lowest measured viability); higher = less toxic
Calu-3 [2] = test: as above
HepG2 [3] = test: cell viability relative to DMSO; higher = less toxic
Caco-2 [4] = test: as above
U2OS [5] = test: as above
Calu-3 [6] = test: as above
Vero E6 [7] = test: as above
HepG2 [8] = test: drug sensitivity score (DSS) for viability; higher = more toxic; extreme values may be limits of the assay
Caco-2 [9] = test: as above
U2OS [10] = test: as above
Calu-3 [11] = test: as above
Vero E6 [12] = test: as above
Caco-2 [13] = test: relative viability EC50 (midpoint between 100% and the lowest measured viability); higher = less toxic
Vero E6 [14] = test: as above
HepG2 [15] = test: as above

Row | Compound | relative viability EC50 (U2OS [1]) [µM] | relative viability EC50 (Calu-3 [2]) [µM] | cell viability (HepG2 [3]; 1 nM) [%] | cell viability (HepG2 [3]; 10 nM) [%] | cell viability (HepG2 [3]; 100 nM) [%] | cell viability (HepG2 [3]; 1000 nM) [%] | cell viability (HepG2 [3]; 10000 nM) [%] | cell viability (Caco-2 [4]; 1 nM) [%] | cell viability (Caco-2 [4]; 10 nM) [%] | cell viability (Caco-2 [4]; 100 nM) [%] | cell viability (Caco-2 [4]; 1000 nM) [%] | cell viability (Caco-2 [4]; 10000 nM) [%] | cell viability (U2OS [5]; 1 nM) [%] | cell viability (U2OS [5]; 10 nM) [%] | cell viability (U2OS [5]; 100 nM) [%] | cell viability (U2OS [5]; 1000 nM) [%] | cell viability (U2OS [5]; 10000 nM) [%] | cell viability (Calu-3 [6]; 1 nM) [%] | cell viability (Calu-3 [6]; 10 nM) [%] | cell viability (Calu-3 [6]; 100 nM) [%] | cell viability (Calu-3 [6]; 1000 nM) [%] | cell viability (Calu-3 [6]; 10000 nM) [%] | cell viability (Vero E6 [7]; 1 nM) [%] | cell viability (Vero E6 [7]; 10 nM) [%] | cell viability (Vero E6 [7]; 100 nM) [%] | cell viability (Vero E6 [7]; 1000 nM) [%] | cell viability (Vero E6 [7]; 10000 nM) [%] | drug sensitivity score (HepG2 [8]) | drug sensitivity score (Caco-2 [9]) | drug sensitivity score (U2OS [10]) | drug sensitivity score (Calu-3 [11]) | drug sensitivity score (Vero E6 [12]) | relative viability EC50 (Caco-2 [13]) [µM] | relative viability EC50 (Vero E6 [14]) [µM] | relative viability EC50 (HepG2 [15]) [µM]
1 | C[C@H]1[C@H](OC(=O)CCC(=O)O)O[C@@H]2O[C@@]3(C)CC[C@H]4[C@H](C)CC[C@@H]1[C@@]24OO3 [artesunate] | 1.42 | > 10 | 91.9 | 96.5 | 94.5 | 88.3 | 65.2 | 102 | 96.1 | 98.3 | 98.3 | 73 | 102 | 100 | 100 | 81 | 35.3 | 104 | 98.3 | 114 | 107 | 88 | 97.4 | 97.8 | 96.5 | 98.5 | 69.2 | 2.8 | 1.3 | 6.4 | 0 | 1.6 |  |  | 
2 | Cc1cc2c(F)c(Oc3ncnn4cc(OC[C@@H](C)OC(=O)[C@H](C)N)c(C)c34)ccc2[nH]1 [brivanib-alaninate] |  | > 10 |  |  |  |  |  | 91.8 | 98.5 | 88.2 | 101 | 86.3 | 94.2 | 101 | 92.5 | 101 | 73.1 | 90.8 | 103 | 95.3 | 102 | 86.5 | 93.1 | 96 | 96.5 | 90.9 | 88.2 |  | 0.1 | 1 | 0.1 | 0 | > 10 | > 10 | 
3 | O=C(/C=C/c1ccc(O)c(O)c1)c1ccc(O)cc1O [butein] | > 10 | > 10 | 99.3 | 103 | 104 | 93.4 | 58.4 | 95.5 | 103 | 101 | 92 | 61.9 | 93.8 | 101 | 94.9 | 96.9 | 75.9 | 100 | 103 | 97.2 | 112 | 92.7 | 103 | 101 | 102 | 99.6 | 101 | 3.2 | 3.2 | 1.4 | 0 | 0 |  | > 10 | 
4 | C[N+](C)(C)CCOC(N)=O [carbachol] | > 10 | > 10 |  |  |  |  |  | 93.6 | 98.2 | 106 | 99.1 | 106 | 107 | 107 | 98.3 | 103 | 98.3 | 95 | 102 | 94 | 97.8 | 100 | 101 | 98.4 | 97.3 | 97.2 | 99 |  | 0 | 0 | 0 | 0 | > 10 | > 10 | 
5 | CC(C)[C@@H](C)/C=C/[C@@H](C)[C@H]1CC[C@H]2C3=CC=C4C[C@@H](O)CC[C@]4(C)[C@H]3CC[C@]12C [ergosterol] | > 10 |  | 92 | 102 | 96.5 | 104 | 95 |  |  |  |  |  | 103 | 96.7 | 97.8 | 94.7 | 102 |  |  |  |  |  | 95.7 | 103 | 94.7 | 102 | 95.5 | 0 |  | 0 |  | 0 |  | > 10 | > 10
6 | O=C(O)CN(CCN(CC(=O)O)CC(=O)O)CC(=O)O [ethylenediaminetetraacetic-acid] |  |  |  |  |  |  |  |  |  |  |  |  |  |  |  |  |  |  |  |  |  |  |  |  |  |  |  | 0 |  | 0 | 0 | 0 |  |  | 
7 | CCCCc1nc(C)c(CC(=S)N(C)C)c(=O)n1Cc1ccc(-c2ccccc2-c2nnn[nH]2)cc1 [fimasartan] | > 10 | > 10 |  |  |  |  |  | 94.2 | 89.4 | 90.8 | 96.9 | 113 | 107 | 96.6 | 102 | 101 | 104 | 94.9 | 99.5 | 128 | 94.4 | 115 | 98 | 95.8 | 93 | 101 | 106 |  | 0 | 0 | 0 | 0 | > 10 | > 10 | 
8 | OC[C@H]1O[C@@H](Oc2cc3c(O)cc(O)cc3[o+]c2-c2ccc(O)c(O)c2)[C@H](O)[C@@H](O)[C@@H]1O [kuromanin] | > 10 | > 10 |  |  |  |  |  | 98.3 | 95.4 | 86.5 | 100 | 96.7 | 96.6 | 99.8 | 96.6 | 99.5 | 93.6 | 98.7 | 111 | 89.7 | 102 | 98.8 | 103 | 102 | 103 | 98 | 94.4 |  | 0 | 0 | 0 | 0 | > 10 | > 10 | 
9 | COc1ccccc1OCC(O)COC(N)=O (configuration not stated) [methocarbamol] |  |  |  |  |  |  |  | 102 | 98.4 | 98.3 | 103 | 100 |  |  |  |  |  |  |  |  |  |  |  |  |  |  |  |  | 0 |  |  |  | > 10 |  | 
10 | CC(C)[C@H]1CC[C@H](C(=O)N[C@H](Cc2ccccc2)C(=O)O)CC1 [nateglinide] |  |  |  |  |  |  |  | 92.7 | 95.6 | 105 | 106 | 96.7 |  |  |  |  |  |  |  |  |  |  | 99.7 | 97 | 92.9 | 93.8 | 94.1 |  | 0 |  |  | 0 | > 10 | > 10 | 
11 | NC(=O)OCCCc1ccccc1 [phenprobamate] | > 10 |  | 105 | 109 | 95 | 98.6 | 112 | 104 | 95.4 | 99.1 | 102 | 104 | 102 | 98.6 | 103 | 102 | 98.9 |  |  |  |  |  |  |  |  |  |  | 0 | 0 | 0 |  |  | > 10 |  | > 10
12 | CCc1ccc(CCOc2ccc(CC3SC(=O)NC3=O)cc2)nc1 (configuration not stated) [pioglitazone] | > 10 | > 10 |  |  |  |  |  | 93.1 | 100 | 98.6 | 92.4 | 91.5 | 94.8 | 94.7 | 96 | 97.8 | 95.8 | 94.9 | 98.1 | 95.1 | 106 | 84.1 | 99 | 101 | 98.9 | 83 | 85.5 |  | 0 | 0 | 0.1 | 2 | > 10 | > 10 | 
13 | NCCNc1ccc(NCCN)c2c1C(=O)c1ccncc1C2=O [pixantrone] | > 10 | > 10 | 100 | 94.8 | 98.9 | 90.2 | 62.9 | 87.4 | 105 | 96.7 | 88.1 | 74.9 | 100 | 101 | 96.5 | 103 | 87.2 | 93.4 | 120 | 95.4 | 102 | 82.5 | 104 | 104 | 104 | 94.4 | 97 | 3.3 | 1.9 | 0 | 0.3 | 0 |  | > 10 | 
14 | CCOC(=O)[C@H](C)C[C@@H](Cc1ccc(-c2ccccc2)cc1)NC(=O)CCC(=O)O [sacubitril] | > 10 | > 10 |  |  |  |  |  | 94.4 | 95.3 | 101 | 92.5 | 100 | 101 | 98.5 | 96 | 97.3 | 97.5 | 91.6 | 96.6 | 99.4 | 97.3 | 98.5 | 93.6 | 106 | 91.3 | 94.5 | 107 |  | 0 | 0 | 0 | 0 | > 10 | > 10 | 
15 | O=C1NC(=O)[C@@]2(CCOc3ccc(F)cc32)N1 [sorbinil] | > 10 | > 10 |  |  |  |  |  |  |  |  |  |  | 96.7 | 105 | 97 | 102 | 96.5 | 103 | 120 | 87.5 | 113 | 102 |  |  |  |  |  |  |  | 0 | 0 |  |  |  | 
16 | Cc1ccc(C(=O)c2cc(O)c(O)c([N+](=O)[O-])c2)cc1 [tolcapone] |  |  | 106 | 117 | 105 | 109 | 97.2 |  |  |  |  |  |  |  |  |  |  |  |  |  |  |  | 109 | 102 | 99.8 | 100 | 104 | 0 |  |  |  | 0 |  | > 10 | > 10
17 | Cc1cc(Nc2cc(N3CCN(C)CC3)nc(Sc3ccc(NC(=O)C4CC4)cc3)n2)n[nH]1 [tozasertib] |  |  | 103 | 99.2 | 70.4 | 72.4 | 36.4 | 97.1 | 91.1 | 96.2 | 97.7 | 77.9 | 105 | 101 | 101 | 86.2 | 54.9 | 110 | 97.6 | 96.8 | 89.1 | 70.9 | 107 | 107 | 100 | 84.2 | 85 | 9.1 | 1.1 | 4.4 | 2.2 | 1.6 | > 10 | > 10 | 0.448
18 | COc1ccc(/C=C/C(=O)Nc2ccccc2C(=O)O)cc1OC [tranilast] | > 10 | > 10 |  |  |  |  |  | 96.9 | 97 | 95.3 | 103 | 93.3 | 97.2 | 97.3 | 93.2 | 99.8 | 96 | 91.9 | 107 | 88.3 | 95.9 | 93.1 |  |  |  |  |  |  | 0 | 0 | 0 |  | > 10 |  | 
19 | N#Cc1ccc2[nH]cc(CCCCN3CCN(c4ccc5oc(C(N)=O)cc5c4)CC3)c2c1 [vilazodone] | > 10 | > 10 | 107 | 99.9 | 99.5 | 95.9 | 66.4 | 96.6 | 106 | 104 | 101 | 83 | 99.4 | 108 | 97.7 | 101 | 92 | 87.5 | 88.7 | 74.5 | 93.6 | 86.6 | 92.7 | 99.6 | 95.3 | 91.2 | 71.6 | 2.2 | 0.3 | 0 | 0 | 2 | > 10 |  | 
